# Key:
# P. falciparum TM90-C2B = experiment: microbe, parasite or virus in culture; type: cell-based; details: Plasmodium falciparum, TM90, read-out: EC50 TM90-C2B
# J774 cell lines = experiment: cytotoxicity in J774 cells, 96 well plate format; type: cell-based; details: Mus musculus, J774, read-out: EC50 J774 (internal controls)
# P. berghei sporozoites = type: cell-based; details: for LBI (TM90-C2B/Pb): liver blood index LBI = TM90-C2B/Pb; for LBI (W2/Pb): liver blood index LBI = W2/Pb
# [1] = test system: P. berghei / P. cynomolgi infections; details: cited from earlier work
# [2] = test system: Plasmodium berghei-GFP parasites; experiment: modified Thompson test in mice; details: 10 mg/kg oral on days 3, 4, 5 in HEC/Tween; vs untreated control animals
SMILES,LBI (TM90-C2B/Pb) (P. berghei sporozoites),LBI (W2/Pb) (P. berghei sporozoites),also measured
"O=C1C(O)=C([C@H]2CC[C@H](c3ccc(Cl)cc3)CC2)C(=O)c2ccccc21 [ATO, atovaquone]",–,–,EC50 (P. falciparum TM90-C2B): 0.0184 µM; EC50 (J774 cell lines): 23.8 µM
"CCN(CC)CCCC(C)Nc1ccnc2cc(Cl)ccc12 (stereo not shown) [CQ, Chloroquine]",–,–,EC50 (J774 cell lines): 47.2 µM
CCCCCc1cc2c(=O)c(C(=O)OC)c[nH]c2cc1OCCOc1ccccc1 [Compound 6y],>123,>0.33,–
COC(=O)c1c[nH]c2ccc(-c3ccccc3)cc2c1=O [Compound 6u],<40.1,<11.7,–
"C[C@H]1[C@@H](O)O[C@@H]2O[C@@]3(C)CC[C@H]4[C@H](C)CC[C@@H]1[C@@]24OO3 [DHA, dihydroartemisinin]",–,–,EC50 (J774 cell lines): 1.53 µM
CCCCc1cc2c(=O)c(C(=O)OC)c[nH]c2cc1OCCOc1ccccc1 [Compound 6b],–,–,dose producing radical cures [1]: 15 mg/kg; Inhibition (%) Day 6 PE [2]: <1%
O=c1cc[nH]c2cc(OCCOc3ccccc3)ccc12 [Compound 8a],<21.7,<16.8,–
CCCc1cc2c(=O)c(C(=O)OC)c[nH]c2cc1OCCOc1ccccc1 [Compound 6x],>707,>2.62,–
COC(=O)c1c[nH]c2cc(OCCCc3ccccc3)ccc2c1=O [Compound 6j],>149,–,–
COC(=O)c1c[nH]c2cc(F)ccc2c1=O [Compound 6n],<3.95,<0.262,–
COC(=O)c1c[nH]c2ccc(OC)cc2c1=O [Compound 6o],>134,–,–
CCCCc1ccc2[nH]ccc(=O)c2c1 [Compound 8c],>31.4,–,–
